c1ccc2c(c1)Cc1ccccc1-2
solubility (mole fraction)
Settings	278.15 K	283.15 K	288.15 K	293.15 K	298.15 K	303.15 K	308.15 K	313.15 K	318.15 K
in THF	0.12	0.13	0.148	0.163	0.182	0.2	0.225	0.248	0.273
in acetone	0.0353	0.0406	0.0482	0.0567	0.0658	0.0779	0.0931	0.109	0.126
in acetonitrile	0.0101	0.0113	0.0138	0.0161	0.0197	0.0235	0.0288	0.0345	0.0406
in ethanol	0.0038	0.00448	0.0055	0.00669	0.00816	0.00937	0.0111	0.0132	0.0154
in ethyl acetate	0.046	0.0542	0.062	0.0737	0.0866	0.102	0.119	0.139	0.163
in ethyl formate	0.0346	0.0395	0.046	0.0552	0.0654	0.0781	0.0933	0.112	0.133
in isobutyl acetate	0.0546	0.0611	0.0718	0.0816	0.0914	0.104	0.124	0.142	0.162
in isopropanol	0.00401	0.0045	0.00559	0.00675	0.00808	0.00943	0.0121	0.0149	0.0177
in isopropyl acetate	0.044	0.0504	0.058	0.0695	0.0812	0.0936	0.11	0.127	0.148
in methanol	0.00199	0.00235	0.00275	0.00313	0.00395	0.00452	0.00528	0.00645	0.00709
in methyl acetate	0.0374	0.0422	0.0498	0.0607	0.0712	0.0856	0.1	0.12	0.142
in n-butyl acetate	0.0693	0.0756	0.0874	0.0991	0.111	0.121	0.146	0.167	0.19
in n-propanol	0.0052	0.00612	0.0072	0.009	0.0112	0.013	0.0155	0.0186	0.0216
in n-propyl acetate	0.0596	0.0671	0.0763	0.0862	0.0969	0.108	0.134	0.153	0.176

— BigSolDB 2.1
